tested on: PRMT5 (SDMA) in HAP1 MTAP-deleted cell line; test: SDMA in-cell western assay, HAP1 MTAP-deleted cell line; type: cell-based; conditions: Homo sapiens; SDMA in-cell western, HAP1 MTAP-deleted (MTAP-null) cell line
Excerpt: (§1) HAP1 MTAP-intact is a cell line in which endogenous levels of MTAP are expressed, and HAP1 MTAP-deleted is an MTAP-null cell line.

Row | SMILES | IC50 [µM] | IC90 [µM]
1 | CC(C)C(=O)N1C[C@H](c2ccc(N3CCN(C)CC3)cc2)N(C(=O)C(=O)Nc2cnc(N)c(C3CC3)c2)C[C@H]1C (racemic) [Compound 4, rac-N-(6-amino-5-cyclopropylpyridin-3-yl)-2-((2R,5S)-4-isobutyryl-5-methyl-2-(4-(4-methylpiperazin-1-yl)phenyl)piperazin-1-yl)-2-oxoacetamide] | 0.005 to 0.05 | > 0.125
2 | C[C@@H]1CN(C(=O)C(=O)Nc2cncc3cn[nH]c23)[C@@H](c2ccc3scnc3c2)CN1C(=O)C1(C)CC1 (racemic) [Compound 61, 2-oxo-N-(1H-pyrazolo[4,3-c]pyridin-7-yl)-2-[rac-(2S,5R)-2-(1,3-benzothiazol-5-yl)-5-methyl-4-(1-methylcyclopropanecarbonyl)piperazin-1-yl]acetamide] | 0.005 to 0.05 | 0.075 to 0.125

same assay, conditions: ratio of SDMA in-cell western IC50 in HAP1 MTAP-intact to IC50 in HAP1 MTAP-deleted cell line

Row | SMILES | Hap1 MTAP intact/deleted ratio
3 | CC(C)C(=O)N1C[C@H](c2ccc(N3CCN(C)CC3)cc2)N(C(=O)C(=O)Nc2cnc(N)c(C3CC3)c2)C[C@H]1C (racemic) [Compound 4, rac-N-(6-amino-5-cyclopropylpyridin-3-yl)-2-((2R,5S)-4-isobutyryl-5-methyl-2-(4-(4-methylpiperazin-1-yl)phenyl)piperazin-1-yl)-2-oxoacetamide] | C (an IC50 ratio of less than 15 fold)
4 | C[C@@H]1CN(C(=O)C(=O)Nc2cncc3cn[nH]c23)[C@@H](c2ccc3scnc3c2)CN1C(=O)C1(C)CC1 (racemic) [Compound 61, 2-oxo-N-(1H-pyrazolo[4,3-c]pyridin-7-yl)-2-[rac-(2S,5R)-2-(1,3-benzothiazol-5-yl)-5-methyl-4-(1-methylcyclopropanecarbonyl)piperazin-1-yl]acetamide] | C (an IC50 ratio of less than 15 fold)
5 | CC(C)C(=O)N1C[C@H](c2ccc(F)cc2)N(C(=O)C(=O)Nc2cnc(N)c(C3CC3)c2)C[C@H]1C [Compound 19] | C (an IC50 ratio of less than 15 fold)

tested on: PRMT5 (SDMA) in HAP1 MTAP-intact cell line; test: SDMA in-cell western assay, HAP1 MTAP-intact cell line; type: cell-based; conditions: Homo sapiens, HAP1 MTAP-intact cell line (endogenous MTAP), read-out: Hap 1 MTAP intact IC50
Excerpt: as §1

Row | SMILES | IC50 [µM]
6 | CC(C)C(=O)N1C[C@H](c2ccc(N3CCN(C)CC3)cc2)N(C(=O)C(=O)Nc2cnc(N)c(C3CC3)c2)C[C@H]1C (racemic) [Compound 4, rac-N-(6-amino-5-cyclopropylpyridin-3-yl)-2-((2R,5S)-4-isobutyryl-5-methyl-2-(4-(4-methylpiperazin-1-yl)phenyl)piperazin-1-yl)-2-oxoacetamide] | > 0.05
7 | C[C@@H]1CN(C(=O)C(=O)Nc2cncc3cn[nH]c23)[C@@H](c2ccc3scnc3c2)CN1C(=O)C1(C)CC1 (racemic) [Compound 61, 2-oxo-N-(1H-pyrazolo[4,3-c]pyridin-7-yl)-2-[rac-(2S,5R)-2-(1,3-benzothiazol-5-yl)-5-methyl-4-(1-methylcyclopropanecarbonyl)piperazin-1-yl]acetamide] | > 0.05

tested on: HAP1 MTAP-deleted cell line; test: viability assay for the MTAP-deleted cell line; type: cell-based; conditions: not given

Row | SMILES | IC50 [µM]
8 | Cc1cc(NC(=O)C(=O)N2C[C@@H](C)N(C(=O)C(C)(C)C)C[C@@H]2c2ccc(F)cc2)cnc1N (stereo in doubt) [Compound 106, N-(6-amino-5-methylpyridin-3-yl)-2-(2-(4-fluorophenyl)-5-methyl-4-pivaloylpiperazin-1-yl)-2-oxoacetamide] | < 0.1
9 | Cc1cc(NC(=O)C(=O)N2C[C@@H](C)N(C(=O)C3(C)CC3)C[C@@H]2c2ccc(F)cc2)cnc1N (stereo in doubt) [Compound 108, N-(6-amino-5-methylpyridin-3-yl)-2-(2-(4-fluorophenyl)-5-methyl-4-(1-methylcyclopropanecarbonyl)piperazin-1-yl)-2-oxoacetamide] | < 0.1

same assay, conditions: Homo sapiens

Row | SMILES | IC50 [µM]
10 | CC(C)C(=O)N1C[C@H](c2ccc(N3CCN(C)CC3)cc2)N(C(=O)C(=O)Nc2cnc(N)c(C3CC3)c2)C[C@H]1C (racemic) [Compound 4, rac-N-(6-amino-5-cyclopropylpyridin-3-yl)-2-((2R,5S)-4-isobutyryl-5-methyl-2-(4-(4-methylpiperazin-1-yl)phenyl)piperazin-1-yl)-2-oxoacetamide] | 0.1 to 1
11 | C[C@@H]1CN(C(=O)C(=O)Nc2cncc3cn[nH]c23)[C@@H](c2ccc3scnc3c2)CN1C(=O)C1(C)CC1 (racemic) [Compound 61, 2-oxo-N-(1H-pyrazolo[4,3-c]pyridin-7-yl)-2-[rac-(2S,5R)-2-(1,3-benzothiazol-5-yl)-5-methyl-4-(1-methylcyclopropanecarbonyl)piperazin-1-yl]acetamide] | 0.1 to 1
12 | Cc1cc(NC(=O)C(=O)N2C[C@@H](C)N(C(=O)C(C)C)C[C@@H]2c2ccc(F)cc2)cnc1N (racemic) [Compound 157, rac-N-(6-amino-5-methylpyridin-3-yl)-2-(2-(4-fluorophenyl)-4-isobutyryl-5-methylpiperazin-1-yl)-2-oxoacetamide] | 0.1 to 1
13 | C[C@@H]1CN(C(=O)C(=O)Nc2cnc(N)c3cn[nH]c23)[C@@H](c2ccccc2)CN1C(=O)C1(C)CC1 (racemic) [Compound 161, N-(4-Amino-1H-pyrazolo[4,3-c]pyridin-7-yl)-2-oxo-2-[rac-(2S,5R)-5-methyl-4-(1-methylcyclopropanecarbonyl)-2-phenyl-piperazin-1-yl]acetamide] | < 0.1
14 | Cc1cc(NC(=O)C(=O)N2C[C@@H](C)N(C(=O)C(C)C)C[C@@H]2c2ccc(F)cc2)cnc1N (relative stereo) [Compound 20, N-(6-amino-5-methyl-3-pyridyl)-2-[(2S,5R)-2-(4-fluorophenyl)-5-methyl-4-(2-methylpropanoyl)piperazin-1-yl]-2-oxo-acetamide] | 0.1 to 1
15 | CC(C)CN1C[C@@H](c2ccc(F)cc2)N(C(=O)C(=O)Nc2cnc(N)c(C3CC3)c2)C[C@@H]1C (single isomer, unassigned) [Compound 26] | > 1
16 | CC(C)CN1C[C@H](c2ccc(F)cc2)N(C(=O)C(=O)Nc2cnc(N)c(C3CC3)c2)C[C@@H]1C (single isomer, unassigned) [Compound 48] | > 1
17 | Cc1cc(NC(=O)C(=O)N2CC(C)N(C(=O)C(C)C)C[C@@H]2c2ccc(F)c(F)c2)cnc1N (stereo in doubt) [Compound 23, N-(6-amino-5-methylpyridin-3-yl)-2-((2S,5R)-2-(3,4-difluorophenyl)-4-isobutyryl-5-methylpiperazin-1-yl)-2-oxoacetamide] | > 1
18 | CC(C)OC(=O)N1C[C@@H](c2ccc(F)cc2)N(C(=O)C(=O)Nc2cnc(N)c(C3CC3)c2)C[C@H]1C (stereo in doubt) [Compound 82, isopropyl 4-(2-((6-amino-5-cyclopropylpyridin-3-yl)amino)-2-oxoacetyl)-5-(4-fluorophenyl)-2-methylpiperazine-1-carboxylate] | > 1
19 | CC(C)OC(=O)N1C[C@H](c2ccc(F)cc2)N(C(=O)C(=O)Nc2cnc(N)c(C3CC3)c2)C[C@@H]1C (stereo in doubt) [Compound 95, isopropyl 4-(2-((6-amino-5-cyclopropylpyridin-3-yl)amino)-2-oxoacetyl)-5-(4-fluorophenyl)-2-methylpiperazine-1-carboxylate] | > 1
20 | C[C@@H]1CN(C(=O)C(=O)Nc2cncc3[nH]ncc23)C(c2ccc(F)cc2)CN1C(=O)C(C)(C)C (stereo in doubt) [Compound 103, 2-[(2S,5R)-4-(2,2-dimethylpropanoyl)-2-(4-fluorophenyl)-5-methyl-piperazin-1-yl]-2-oxo-N-(1H-pyrazolo[3,4-c]pyridin-4-yl)acetamide] | > 1
21 | Cc1cc(NC(=O)C(=O)N2C[C@@H](C)N(C(=O)C(C)(C)C)C[C@@H]2c2ccc(F)cc2)cnc1N [Compound 3, N-(6-amino-5-methylpyridin-3-yl)-2-((2S,5R)-2-(4-fluorophenyl)-5-methyl-4-pivaloylpiperazin-1-yl)-2-oxoacetamide] | < 0.1
22 | COc1ncc(NC(=O)C(=O)N2C[C@H](C)N(C(=O)C3(C)CC3)C[C@H]2c2ccc(F)cc2)cc1C(N)=O [Compound 5, 5-(2-((2R,5S)-2-(4-fluorophenyl)-5-methyl-4-(1-methylcyclopropanecarbonyl)piperazin-1-yl)-2-oxoacetamido)-2-methoxynicotinamide] | 0.1 to 1
23 | Cc1cc(NC(=O)C(=O)N2C[C@@H](C)N(C(=O)C3(C(F)(F)F)CC3)C[C@@H]2c2ccc(F)cc2)cnc1N [Compound 27] | < 0.1
24 | CC(C)C(=O)N1C[C@H](c2ccccc2)N(C(=O)C(=O)Nc2cnc(N)c3cn[nH]c23)C[C@H]1C [Compound 50] | < 0.1
25 | C[C@@H]1CN(C(=O)C(=O)Nc2cnc(N)c(C3CC3)c2)[C@@H](c2ccccc2)CN1C(=O)C1(C(F)(F)F)CC1 [Compound 51, N-(6-amino-5-cyclopropylpyridin-3-yl)-2-((2S,5R)-5-methyl-2-phenyl-4-(1-(trifluoromethyl)cyclopropanecarbonyl)piperazin-1-yl)-2-oxoacetamide] | < 0.1
26 | C[C@H]1CN(C(=O)C(=O)Nc2cnc(N)c(C3CC3)c2)[C@@H](c2ccc(F)cc2)CN1C(=O)CC1CC1 [Compound 56] | > 1
27 | Cc1cc(NC(=O)C(=O)N2C[C@H](C)N(C(=O)C3(C(F)(F)F)CC3)C[C@H]2c2ccc(F)cc2)cnc1N [Compound 64] | > 1
28 | COc1ncc(NC(=O)C(=O)N2C[C@@H](C)N(C(=O)C3(C)CC3)C[C@@H]2c2ccc(F)cc2)cc1C(N)=O [Compound 102, 5-(2-((2S,5R)-2-(4-fluorophenyl)-5-methyl-4-(1-methylcyclopropanecarbonyl)piperazin-1-yl)-2-oxoacetamido)-2-methoxynicotinamide] | > 1
29 | Cc1cc(NC(=O)C(=O)N2C[C@@H](C)N(C(=O)C3(C)CC3)C[C@@H]2c2ccc(F)cc2)cnc1N [Compound 104, N-(6-amino-5-methylpyridin-3-yl)-2-((2S,5R)-2-(4-fluorophenyl)-5-methyl-4-(1-methylcyclopropanecarbonyl)piperazin-1-yl)-2-oxoacetamide] | < 0.1
30 | C[C@@H]1CN(C(=O)C(=O)Nc2cnc(N)c3cn[nH]c23)[C@@H](c2ccccc2)CN1C(=O)C(C)(C)C [Compound 124, N-(4-amino-1H-pyrazolo[4,3-c]pyridin-7-yl)-2-((2S,5R)-5-methyl-2-phenyl-4-pivaloylpiperazin-1-yl)-2-oxoacetamide] | < 0.1
31 | C[C@@H]1CN(C(=O)C(=O)Nc2cnc(N)c(C3CC3)c2)[C@H](c2ccc(F)cc2)CN1C(=O)CC1CC1 [Compound 136] | > 1
32 | C[C@@H]1CN(C(=O)C(=O)Nc2cnc(N)c(C3CC3)c2)[C@@H](c2ccc3scnc3c2)CN1C(=O)C1(C(F)(F)F)CC1 [Compound 141, N-(6-amino-5-cyclopropyl-3-pyridyl)-2-[(2S,5R)-2-(1,3-benzothiazol-5-yl)-5-methyl-4-[1-(trifluoromethyl)cyclopropanecarbonyl]piperazin-1-yl]-2-oxo-acetamide] | < 0.1
33 | C[C@@H]1CN(C(=O)C(=O)Nc2cnc(N)c3cn[nH]c23)[C@@H](c2ccccc2)CN1C(=O)C1(C(F)(F)F)CC1 [Compound 155] | < 0.1
34 | CC(C)C(=O)N1C[C@H](c2ccccc2)N(C(=O)C(=O)Nc2cnc(N)c3c2cnn3C)C[C@H]1C [Compound 165, N-(7-Amino-1-methyl-pyrazolo[3,4-c]pyridin-4-yl)-2-oxo-2-[(2S,5R)-5-methyl-4-(2-methylpropanoyl)-2-phenyl-piperazin-1-yl]acetamide] | < 0.1
35 | C[C@@H]1CN(C(=O)C(=O)Nc2cnc(N)c3c2cnn3C)[C@@H](c2ccccc2)CN1C(=O)C1(C(F)(F)F)CC1 [Compound 166, N-(7-Amino-1-methyl-pyrazolo[3,4-c]pyridin-4-yl)-2-oxo-2-[(2S,5R)-5-methyl-2-phenyl-4-[1-(trifluoromethyl)cyclopropanecarbonyl]piperazin-1-yl]acetamide] | < 0.1
36 | CC(=O)N1C[C@H](c2ccccc2)N(C(=O)C(=O)Nc2cnc(N)c3c2cnn3C)C[C@H]1C [Compound 168, N-(7-Amino-1-methyl-pyrazolo[3,4-c]pyridin-4-yl)-2-oxo-2-[(2S,5R)-4-acetyl-5-methyl-2-phenyl-piperazin-1-yl]acetamide] | < 0.1
